Reference: patent US10487082B2, “S1PR2 antagonists and uses therefor” (DALHOUSIE UNIVERSITY, priority 2015, dated 2019)
Entries after “also recorded” stand apart in the source; their conditions may differ.

What was measured:
Fzd4−/− mice = experiment: Retinal vasculature in Fzd4−/− mouse model of FEVR (flat-mounted retinas, iso-lectin B4 staining, confocal microscopy); format: in vivo; conditions: 0.5 mg/kg intraperitoneally every second day from P7 to P25, retinas at P25
Experimental: FIG. 7 illustrates that treatment of Fzd4^−/− mice with the S1PR2 antagonist JTE-013 ameliorates the FEVR phenotype. Fzd4^−/− mice were injected with 0.5 mg/kg JTE-013 intraperitoneally every second day from P7 to P25. Retinas were flat mounted at P25 and the vasculature visualized by confocal microscopy subsequent to staining with iso-lectin B4 AlexaFluor 594.
Fzd4^−/− mice were injected with 0.5 mg/kg JTE-013 intraperitoneally every second day from P7 to P25. Using standard protocols, retinas were flat mounted at P25 and the vasculature visualized by confocal microscopy subsequent to staining with iso-lectin B4 AlexaFluor 594. (Vascular development in the retina and inner ear: control by Norrin and Frizzled-4, a high-affinity ligand-receptor pair. Xu Q, Wang Y, Dabdoub A, Smallwood P M, Williams J, Woods C, Kelley M W, Jiang L, Tasman W, Zhang K, Nathans J. Cell 116, 883-95 (2004).)

S1PR2 = S1PR2 (Homo sapiens, UniProt O95136); conditions: cited from earlier work
Chain of S1PR2 (O95136 whole entry): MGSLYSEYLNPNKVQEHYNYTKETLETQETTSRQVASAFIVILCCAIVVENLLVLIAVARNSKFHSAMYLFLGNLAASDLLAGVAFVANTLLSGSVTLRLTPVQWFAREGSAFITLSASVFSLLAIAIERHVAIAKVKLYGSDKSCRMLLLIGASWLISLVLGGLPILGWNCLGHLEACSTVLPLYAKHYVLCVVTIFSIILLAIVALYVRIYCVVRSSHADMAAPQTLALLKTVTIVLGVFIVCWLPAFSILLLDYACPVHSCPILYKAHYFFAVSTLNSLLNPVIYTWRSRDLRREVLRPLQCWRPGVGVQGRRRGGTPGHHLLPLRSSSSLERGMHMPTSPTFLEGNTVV

Compound: Cc1nn(C)c2nc(NNC(=O)Nc3cc(Cl)nc(Cl)c3)cc(C(C)C)c12 [JTE-013, 1-(2,6-dichloro-4-pyridyl)-3-[(4-isopropyl-1,3-dimethyl-pyrazolo[3,4-b]pyridin-6-yl)amino]urea]
- retinal vascular patterning / FEVR retinal vascularization defects (Fzd4−/− mice): substantial restoration of normal retinal vascular patterning; also recorded: able to ameliorate FEVR retinal vascularization defects
- affinity for S1PR2 (S1PR2): 18 nM
- specificity for S1PR2 versus other S1PRs (S1PR2): 100 fold
